Source: patent US6436960B1, “Farnesyl transferase inhibitors having a piperidine structure and process for preparation thereof” (LG Chemical Ltd., priority 1998, dated 2002)

Assays:
[1] = target: T1, Ras farnesyl transferase (Rattus norvegicus, UniProt Q02293+Q04631); assay: in vivo (cellular) Ras farnesyl transferase inhibitory activity, Rat2 cells expressing C-Harvey-Ras; assay type: cell-based; conditions: Rat2 cell line expressing C-Harvey-Ras; concentration inhibiting 50% of farnesyl binding of Ras protein; read-out: H-Ras CIC50
T1 construct: endogenous in cells; host or cells: Rat2 fibroblasts transformed with C-Harvey-Ras, or with H-Ras carrying the K-Ras C-terminal polybasic lysine domain
Protocol: (§1) In the present experiment, Rat2 cell line which expresses C-Harvey-Ras protein having transforming activity and Rat2 cell line(Korean patent application No. 97-14409) which is transformed with fused protein of H-Ras substituted with polybasic lysine domain at C-terminus of K-Ras were used. The experiment was performed by the modified Declue's method(Declue. J. E. et al., Cancer Research, 1991, 51, 712). Hereinafter, the experimental method will be described in more detail.
(§2) 3×10^5 cells of transformed Rat2 fibroblast cell line were sprayed on 60 mm cell cultivation dish and cultivated for 48 hours in a cell incubator at 37° C. and after 50% or more of density was reached, it was treated with the test compounds. The compound according to the present invention dissolved in dimethylsulfoxide(DMSO) was used. 1% concentration of dimethylsulfoxide was used in both control and test groups. After 4 hours from the treatment with the compound, methionine labeled with 150 μCi of radioactive isotope [^35S] per 1 ml of medium was added and after cultivating for 20 hours, the cells were washed with physiological saline water. The cells were lysed using 1 ml of cold cell lysis buffer solution(50 mM of Sodium HEPES buffer solution containing 5 mM of magnesium chloride, 1 mM of DTT, 1% NP 40, 1 mM of EDTA, 1 mM of PMSF, 2 μM of leupeptin, 2 μM of pepstatin A and 2 μM of antipain) and the supernatant wherein the cells were lysed was obtained by high-velocity centrifugation of 12,000 g×5 minutes. The amount of radioisotope in the supernatant was measured and standardized to obtain a quantitative result in immunoprecipitation reaction and then, Y13-259, a monoclonal antiboby specifically binding to Ras protein(Furth, M. E. et al., J. Virol, 1982, 43, 294) was added and reacted for 15 hours at 4° C. Protein A(combined with goat anti-murine imunoglobulin antibody)-agarose suspension was added to the solution and reacted for 1 hour at 4° C. and then, to remove the unspecific binding product, immunoprecipitates were washed with a buffer solution (50 mM Tris chloride buffer solution containing 50 mM of sodium chloride, 0.5% of sodium dioxycholate, 0.5% of NP 40 and 0.1% of SDS). The precipitates were added to a buffer solution for electrophoresis and boiled and then, electrophoresis was performed using 13.5% of SDS polyacrylamide gel. After electrophoresis, the gel was fixed and dried. Then, the gel was exposed to X-ray film, developed and printed. From the result of the experiment, intensities of band of protein combined with or without farnesyl of Ras protein were measured, and the concentration of the test compound inhibiting 50% of farnesyl binding was defined as CIC50, an in vivo Ras farnesyl transferase inhibitory activity.

[2] = target: T2, Ras farnesyl transferase (Homo sapiens, UniProt P49354+P49356); assay: in vitro inhibitory activity for Ras farnesyl transferase, H-Ras substrate; assay type: biochemical; conditions: recombinant Ras farnesyl transferase, H-Ras substrate, tritium-farnesylpyrophosphate, 30 minutes at 37° C.; read-out: H-Ras IC50
T2 construct: made in house
Protocol: (§3) In the present experiment, Ras farnesyl transferase produced by genetic recombination techniques according to the improved Pompliano's method (Pompliano et al., Biochemistry, 1992, 31, 3800) was used, and Ras substrate(Ras-CVLS) protein described in Korean Patent Appln. No. 97-14409 was used after it has been purified according to the known method(see, Chung et al., Biochimica et Biophysica Acta, 1992, 278, 1129).
(§4) The enzyme reaction was performed in 50 μl of 50 mM Soduam HEPES buffer solution containing 25 mM of potassium chloride, 25 mM of magnesium chloride, 10 mM of DTT and 50 μM of zinc chloride. 1.5 μM of Ras substrate protein, 0.15 μM of tritium-farnesylpyrophosphate and 4.5 nM of farnesyl transferase were used.
(§5) More specifically, in the initial step, farnesyl transferase was added to the above buffer solution, reaction was maintained for 30 minutes at 37° C. and then the reaction was stopped by adding 1 ml of ethanol solution containing 1M HCl. The formed precipitates were adsorbed to GF/B filter using Hopper harvestor(Hopper #FH 225V) for filter-binding, washed with ethanol, and then radioactivity of the dried filter was measured using LKB β counter. Enzyme titer was measured in the unsaturated state of substrate where the concentrations of Ras substrate protein and farnesyl transferase have quantitative relationship. The compound according to the present invention dissolved in dimethyl sulfoxide(DMSO) was added to the reaction solution in an amount of less than 5% of the total reaction solution, and then the enzyme inhibitory activity thereof was measured. The enzyme inhibitory activity was represented by percentage of the amount of farnesyl incorporated into the Ras substrate protein in the presence of the test compound to that in the absence of the test compound. IC50 of the test compound was defined as the concentration at which 50% of the enzyme activity was inhibited.

[3] = target: T2, Ras farnesyl transferase; assay: in vitro inhibitory activity for Ras farnesyl transferase, K-Ras substrate; assay type: biochemical; conditions: recombinant Ras farnesyl transferase, K-Ras substrate; read-out: K-Ras IC50
Protocol: as §3, with “and Ras substrate(Ras-CVLS) protein described in Korean Patent” left out
as §4, §5

[4] = target: T1, Ras farnesyl transferase; assay: in vivo (cellular) Ras farnesyl transferase inhibitory activity, Rat2 cells transformed with H-Ras fused with polybasic lysine domain of K-Ras; assay type: cell-based; conditions: Rat2 cell line transformed with H-Ras substituted with polybasic lysine domain at C-terminus of K-Ras; concentration inhibiting 50% of farnesyl binding; read-out: K-Ras CIC50
Protocol: as §1, §2

Row | Structure (SMILES) | IC50 [1] | IC50 [2] | IC50 [3] | IC50 [4]
1 | CCCCNC(=O)N1CCC(Cn2cncc2Cn2cc(C(=O)N(C)CCOC)c(-c3cccc4ccccc34)c2)CC1 [Compound 10, 1-{1-[1-(N-Butylcarbamoyl)-piperidin-4-ylmethyl]-1H-imidazol-5-ylmethyl}-3[N-(2-methoxyethyl)-N-methyl]carbamoyl-4-(naphthalen-1-yl)-1H-pyrrole] | 10 to 100 nM | 1 to 10 nM | 10 to 1000 nM | 1000 to 50000 nM
2 | CN1CCN(C(=O)c2cn(Cc3cncn3CC3CCN(Cc4ccc(Oc5ccccc5)cc4)CC3)cc2-c2cccc3ccccc23)CC1 [Compound 57, 3-(4-Methylpiperazin-1-yl)carbonyl-4-(naphthalen-1-yl)-1-{1-[1-(4-phenoxybenzyl)piperidin-4-yl]methyl-1H-imidazol-5-yl}methyl-1H-pyrrole] | 25 nM | 11 nM | 10 nM | 10000 nM
3 | CN1CCN(C(=O)c2cn(Cc3cncn3CC3CCN(C(=O)N4CCc5ccccc5C4)CC3)cc2-c2cccc3ccccc23)CC1 [Compound 55, 3-(4-Methylpiperazin-1-yl)carbonyl-4-(naphthalen-1-yl)-1-{1-[1-(1,2,3,4-tetrahydroisoquinolin-2-ylcarbonyl)piperidin-4-yl]methyl-1H-imidazol-5-yl}methyl-1H-pyrrole] | 25 nM | 2 nM | 40 nM | 10000 to 50000 nM
4 | CN1CCN(C(=O)c2cn(Cc3cncn3CC3CCN(C(=O)N4CCCc5ccccc54)CC3)cc2-c2cccc3ccccc23)CC1 [Compound 54, 3-(4-Methylpiperazin-1-yl)carbonyl-4-(naphthalen-1-yl)-1-{1-[1-(1,2,3,4-tetrahydroquinolin-1-ylcarbonyl)piperidin-4-yl]methyl-1H-imidazol-5-yl}methyl-1H-pyrrole] | 25 nM | 11 nM | 40 nM | 10000 to 50000 nM
5 | CN1CCN(C(=O)c2cn(Cc3cncn3CC3CCN(C(=O)COc4ccccc4)CC3)cc2-c2cccc3ccccc23)CC1 [Compound 44, 3-(4-Methylpiperazin-1-yl)carbonyl-4-(naphthalen-1-yl)-1-[1-(1-phenoxyacetylpiperidin-4-yl)methyl-1H-imidazol-5-yl]methyl-1H-pyrrole] | 50 nM | 2 nM | 11 nM | 10000 to 50000 nM
6 | CN1CCN(C(=O)c2cn(Cc3cncn3CC3CCN(S(C)(=O)=O)CC3)cc2-c2cccc3ccccc23)CC1 [Compound 41, 3-(4-Methylpiperazin-1-yl)carbonyl-1-[1-(1-methylsulfonylpiperidin-4-yl)methyl-1H-imidazol-5-yl]methyl-4-(naphthalen-1-yl)-1H-pyrrole] | 50 nM | 3 nM | 10 nM | 10000 to 50000 nM
7 | O=C(c1cn(Cc2cncn2CC2CCNCC2)cc1-c1cccc2ccccc12)N1CCOCC1 [Compound 2] | 100 nM | 9 nM | 6000 nM | 10000 to 100000 nM
8 | CN1CCN(C(=O)c2cn(Cc3cncn3CC3CCN(C(=O)c4ccc5ccccc5c4)CC3)cc2-c2cccc3ccccc23)CC1 [Compound 49] | 350 nM | 1.8 nM | 12 nM | 10000 nM

Now from value to molecule:

Row | IC50 [1] | IC50 [2] | IC50 [3] | IC50 [4] | Structure (SMILES)
9 | 10 to 100 nM | 9 nM | 20 nM | 1000 to 10000 nM | COCCN(C)C(=O)c1cn(Cc2cncn2CC2CCN(C(=O)OCC=C(C)C)CC2)cc1-c1cccc2ccccc12 [Compound 22]
10 | 10 to 100 nM | 2 nM | 12 nM | 1000 to 10000 nM | COCCN(C)C(=O)c1cn(Cc2cncn2CC2CCN(C(=O)N3CCc4ccccc4C3)CC2)cc1-c1cccc2ccccc12 [Compound 32, 3-[N-(2-Methoxyethyl)N-methyl]carbamoyl-4-(naphthalen-1-yl)-1-{1-[1-(1,2,3,4-tetrahydroisoquinolin-2-ylcarbonyl)piperidin-4-ylmethyl]-1H-imidazol-5-ylmethyl}-1H-pyrrole]
11 | 10 nM | 7 nM | 20 nM | 1000 to 10000 nM | COCCN(C)C(=O)c1cn(Cc2cncn2CC2CCN(C(=O)OCc3cccc4ccccc34)CC2)cc1-c1cccc2ccccc12 [Compound 19, 3-[N-(2-Methoxyethyl)-N-methyl]carbamoyl-4-(naphthalen-1-yl)-1-{1-[1-(1-naphthalen-1-ylmethyloxycarbonyl)piperidin-4-ylmethyl]-1H-imidazol-5-ylmethyl}-1H-pyrrole]
12 | 10 to 100 nM | 6 nM | 15 nM | 1000 to 10000 nM | COCCN(C)C(=O)c1cn(Cc2cncn2CC2CCN(C(=O)OCc3ccc(F)cc3)CC2)cc1-c1cccc2ccccc12 [Compound 24]
13 | 10 to 100 nM | 1 nM | 10 to 1000 nM | 1000 to 50000 nM | CCC(=O)N1CCC(Cn2cncc2Cn2cc(C(=O)N(C)CCOC)c(-c3cccc4ccccc34)c2)CC1 [Compound 18, 3-[N-(2-Methoxyethyl)-N-methyl]carbamoyl-4-(naphthalen-1-yl)-1-[1-(1-propionyl-piperidin-4-ylmethyl)-1H-imidazol-5-ylmethyl]-1H-pyrrole]
14 | 10 to 100 nM | 1 nM | 10 to 1000 nM | 1000 to 50000 nM | COCCN(C)C(=O)c1cn(Cc2cncn2CC2CCN(C(=O)CCc3ccccc3)CC2)cc1-c1cccc2ccccc12 [Compound 15, 3-[N-(2-Methoxyethyl)-N-methyl]carbamoyl-4-(naphthalen-1-yl)-1-{1-[1-(2-phenylethylcarbonyl)-piperidin-4-ylmethyl]-1H-imidazol-5-ylmethyl}-1H-pyrrole]
15 | 10 to 100 nM | 1 to 10 nM | 10 to 1000 nM | 10000 to 100000 nM | COCCN(C)C(=O)c1cn(Cc2cncn2CC2CCN(C(=O)OC)CC2)cc1-c1cccc2ccccc12 [Compound 17, 1-[1-(1-Methoxycarbonyl-piperidin-4-ylmethyl)-1H-imidazol-5-ylmethyl]-3[N-(2-methoxyethyl)-N-methyl]carbamoyl-4-(naphthalen-1-yl)-1H-pyrrole]
